Data published in PubChem BioAssay AID328 (DTP/NCI, 2004).
Several values for one entry are separate records, joined by “and”; a condition that tells them apart may be missing. Equal entries are not always repeated. Inconclusive results and toxic doses are left out.

System: BDF1 mice, P388 leukemia ip, median survival T/C
Assay: NCI In Vivo Anticancer Drug Screen. Data for tumor model P388 Leukemia (intraperitoneal) in B6D2F1 (BDF1) mice
Settings: endpoint: median survival time, higher = longer survival
Outline: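 Compound-treated tumour-bearing mice were compared with vehicle-treated controls. Survival was recorded, and the value is the treated-group measurement divided by the control-group measurement (T/C).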

[1] = dose: 50.0 mg/kg/injection, schedule: Q01DX005 (ip), vehicle: saline with Tween-80

Nc1ccc(N)c2c1C(=O)c1cccc([N+](=O)[O-])c1C2=O
T/C (dose: 25.0 mg/kg/injection, schedule: Q01DX010 (ip), vehicle: carboxymethylcellulose (CMC)): 95 % of control | T/C (dose: 50.0 mg/kg/injection, schedule: Q01DX010 (ip), vehicle: carboxymethylcellulose (CMC)): 105 % of control | T/C (dose: 100.0 mg/kg/injection, schedule: Q01DX010 (ip), vehicle: carboxymethylcellulose (CMC)): 115 % of control | T/C (dose: 200.0 mg/kg/injection, schedule: Q01DX010 (ip), vehicle: carboxymethylcellulose (CMC)): 105 % of control | T/C (dose: 400.0 mg/kg/injection, schedule: Q01DX010 (ip), vehicle: carboxymethylcellulose (CMC)): 110 % of control

[Cr+6].[NH2-].[NH2-].[NH2-].[NH2-].[NH2-].[NH2-]
T/C (dose: 4.1 mg/kg/injection, schedule: Q04DX003 (ip), vehicle: saline): 116 % of control | T/C (dose: 5.4 mg/kg/injection, schedule: Q04DX003 (ip), vehicle: saline): 109 % of control | T/C (dose: 6.25 mg/kg/injection, schedule: Q01DX009 (ip), vehicle: saline): 120 % of control | T/C (dose: 8.2 mg/kg/injection, schedule: Q01DX009 (ip), vehicle: saline): 122 % of control | T/C (dose: 8.2 mg/kg/injection, schedule: Q04DX003 (ip), vehicle: saline): 109 % of control | T/C (dose: 25.0 mg/kg/injection, schedule: Q01DX001 (ip), vehicle: saline): 112 % of control | T/C (dose: 50.0 mg/kg/injection, schedule: Q01DX001 (ip), vehicle: saline): 112 % of control

CCCCCCCCNC12CC3CC(CC(C3)C1)C2
T/C (dose: 6.25 mg/kg/injection, schedule: Q04DX003 (ip), vehicle: saline): 104 % of control | T/C (dose: 12.5 mg/kg/injection, schedule: Q04DX003 (ip), vehicle: saline): 108 % of control | T/C (dose: 25.0 mg/kg/injection, schedule: Q04DX003 (ip), vehicle: saline): 116 % of control | T/C (dose: 50.0 mg/kg/injection, schedule: Q04DX003 (ip), vehicle: saline): 100 % of control | T/C (dose: 100.0 mg/kg/injection, schedule: Q04DX003 (ip), vehicle: saline): 108 % of control

c1ccc2c(c1)C1c3cccc[n+]3C2CC1n1c2ccccc2c2ccccc21 (centres undefined)
T/C (dose: 6.25 mg/kg/injection, schedule: Q01DX009 (ip), vehicle: Klucel (hydroxypropylcellulose) (HPC)): 100 % of control | T/C (dose: 12.5 mg/kg/injection, schedule: Q01DX009 (ip), vehicle: Klucel (hydroxypropylcellulose) (HPC)): 100 % of control and 108 % of control | T/C (dose: 16.0 mg/kg/injection, schedule: Q01DX009 (ip), vehicle: Klucel (hydroxypropylcellulose) (HPC)): 100 % of control | T/C (dose: 25.0 mg/kg/injection, schedule: Q01DX009 (ip), vehicle: Klucel (hydroxypropylcellulose) (HPC)): 87 % of control and 113 % of control | T/C (dose: 50.0 mg/kg/injection, schedule: Q01DX009 (ip), vehicle: Klucel (hydroxypropylcellulose) (HPC)): 91 % of control | T/C (dose: 100.0 mg/kg/injection, schedule: Q01DX009 (ip), vehicle: Klucel (hydroxypropylcellulose) (HPC)): 100 % of control

Cc1cc(Cl)nc(Cl)c1C(N)=O
T/C [1]: 100 % of control | T/C (dose: 100.0 mg/kg/injection, schedule: Q01DX005 (ip), vehicle: saline with Tween-80): 100 % of control | T/C (dose: 200.0 mg/kg/injection, schedule: Q01DX005 (ip), vehicle: saline with Tween-80): 100 % of control

O=C(OC[P+](c1ccccc1)(c1ccccc1)c1ccccc1)c1ccccc1
T/C (dose: 3.13 mg/kg/injection, schedule: Q01DX009 (ip), vehicle: saline): 112 % of control | T/C (dose: 25.0 mg/kg/injection, schedule: Q01DX009 (ip), vehicle: saline): 122 % of control | T/C (dose: 50.0 mg/kg/injection, schedule: Q01DX009 (ip), vehicle: saline): 91 % of control

ClC1C(Cl)C2CC1C1OC21 (centres undefined)
T/C (dose: 50.0 mg/kg/injection, schedule: Q01DX009 (ip), vehicle: other): 101 % of control | T/C (dose: 100.0 mg/kg/injection, schedule: Q01DX009 (ip), vehicle: other): 100 % of control | T/C (dose: 200.0 mg/kg/injection, schedule: Q01DX009 (ip), vehicle: other): 100 % of control

C(#C[P+]1(c2ccccc2)C=C(c2ccccc2)OC(c2ccccc2)=C1)c1ccccc1
T/C [1]: 110 % of control

C[CH2][Pb]([CH2]C)([CH2]C)[O]C(=O)CBr
T/C (dose: 2.0 mg/kg/injection, schedule: Q01DX009 (ip), vehicle: other): 109 % of control | T/C (dose: 4.5 mg/kg/injection, schedule: Q01DX009 (ip), vehicle: other): 101 % of control | T/C (dose: 6.0 mg/kg/injection, schedule: Q01DX009 (ip), vehicle: Klucel (hydroxypropylcellulose) (HPC)): 120 % of control | T/C (dose: 12.0 mg/kg/injection, schedule: Q01DX009 (ip), vehicle: Klucel (hydroxypropylcellulose) (HPC)): 103 % of control

N#Cc1ccc(N)c(CSc2ccccc2)c1
T/C (dose: 50.0 mg/kg/injection, schedule: Q04DX002 (ip), vehicle: saline with Tween-80): 93 % of control | T/C (dose: 100.0 mg/kg/injection, schedule: Q04DX002 (ip), vehicle: saline with Tween-80): 90 % of control | T/C (dose: 200.0 mg/kg/injection, schedule: Q04DX002 (ip), vehicle: saline with Tween-80): 99 % of control

CCCNC1=C(C)C(=O)C2=C(C1=O)[C@H](COC(N)=O)[C@]1(OC)[C@@H]3N[C@@H]3CN21
T/C (dose: 2.0 mg/kg/injection, schedule: Q01DX009 (ip), vehicle: saline sonified): 205 % of control | T/C (dose: 2.0 mg/kg/injection, schedule: Q01DX009 (ip), vehicle: saline): 180 % of control | T/C (dose: 3.0 mg/kg/injection, schedule: Q01DX009 (ip), vehicle: saline): 200 % of control | T/C (dose: 3.13 mg/kg/injection, schedule: Q01DX009 (ip), vehicle: saline sonified): 150 % of control
